Laboratory results reported in patent US5734081A, “Arylthio compounds” (Warner-Lambert Company, priority 1995, dated 1998).
Read-outs that look alike come from different tables or passages of the source.

Key:
HIV-1 [1] = test: CEM cell assay, anti-HIV-1 activity; format: cell-based; conditions: Human immunodeficiency virus 1, CCRF-CEM, HIV-1, 6 or 7 days, read-out: EC50 (Effective Concentration which protects cells from viral cytopathic effects)
Source text: The test systems utilized to establish the antiviral activity of the arylthio compounds of this invention are well recognized in the art and are routinely employed for such purpose. For example, the assay utilized to evaluate the compounds activity against the HIV virus is that employed by the U.S. National Cancer Institute as described by Weislow O. S., et al., J. Natl. Cancer Inst., 1989;81:577-586, incorporated herein by reference.
The procedure is designed to detect agents acting at any stage of the virus reproductive cycle. The assay basically involves the killing of T4 lymphocytes by HIV. Small amounts of HIV are added to cells, and at least two complete cycles of virus reproduction are necessary to obtain the required cell killing. Agents which interact with virions, cells, or virus gene-products to interfere with viral activities will protect cells from cytolysis. The system is automated in several features to accommodate large numbers of candidate agents, and is generally designed to detect anti-HIV activity. However, compounds which degenerate or are rapidly metabolized in the culture conditions may not show activity in this screen.
(§1) Yet another test system employed to determine antiviral activity is called the CEM cell assay.
(§2) T4 lymphocytes (CEM cell line) are exposed to HIV at a virus to cell ratio approximately 0.05, and plated along with noninfected control cells in 96-well microliter plates.
(§3) The candidate agent is dissolved in dimethyl sulfoxide (unless otherwise noted), then diluted 1:200 in cell culture medium. Further dilutions (half-log10) are prepared before adding to an equal volume of medium containing either infected or noninfected cells. Cultures are incubated at 37° in a 5% carbon dioxide atmosphere for 6 or 7 days. The tetrazolium salt, XTT, is added to all wells, and cultures are incubated to allow formazan color development by viable cells (J. National Cancer Institute, 1989;81:577-586). Individual wells are analyzed spectrophotometrically to quantitate formazan production, and in addition are viewed microscopically for detection of viable cells confirmation of protective activity.
(§4) Drug-tested virus-infected cells are compared with drug-treated noninfected cells and with other appropriate controls (untreated infected and untreated noninfected cells, drug-contain wells without cells, etc.) on the same plate. Data are reviewed in comparison with other tests done at the same time and a determination about activity is made.

[2] = H9 cell cytotoxicity (XTT assay, uninfected cells); format: cell-based; conditions: human, drug alone, read-out: IC50 (Inhibitory Concentration where drug alone inhibits cell growth)
Description: (§5) The H9 T-cell line is batch infected with HIV virus at an M0I of 0.01. After 2 hours absorption, the cells are washed, resuspended in RPMI-1640/10% fetal calf serum, and seeded at […] of a 96-well plate. A duplicate plate of uninfected H9 cells is prepared for the cytotoxicity assay. Drugs are serially diluted 1/3.16 in DMSO, transferred to media at an 8× concentration, and then added to the cultures in triplicate. The final DMSO concentration of 0.002 (0.2%).
(§6) Viral production is measured by RT assay and cytotoxicity is measured by XTT assay at 7 days post-infection. The RT assay is performed as a modification of Borroto-Esoda and Boone, J. Virol., 1991;65:1952-1959 and quantitated using a Molecular Dynamics Phosphoimager with Imagequant software. The XTT assay is performed as a modification of Roehm, et al., J. Immuno. Methods., 1991;142:257-265 and quantitated using a molecular Devices Thermomax plate reader with Softmax software.
(§7) Data is electronically transferred to a Microsoft Excell spreadsheet for analysis. The RT assay values equivalent to 50% and 90% inhibition of virus production are calculated from the untreated controls. The concentrations of inhibitor required to produce these values (IC50 and IC90) are interpolated from data points flanking these RT activities. The XTT assay values equivalent to 50% cytotoxicity are calculated from the untreated controls. The concentrations of inhibitor required to produce this value are interpolated from data points flanking these XTT values.

HIV-1 [3] = test: HIV H9 cell assay, anti-HIV-1 activity; format: cell-based; conditions: Human immunodeficiency virus 1, H9, 168 h, read-out: EC50 (Effective Concentration which protects cells from viral cytopathic effects)
Source text: Another test system utilized to evaluate the invention compounds is called HIV H9 assay. The HIV H9 cell assay measures the inhibitor concentration required to suppress HIV-1 virus replication. In this system, viral growth occurs through multiple rounds of the life-cycle. Any suppression of the replication kinetics results in a geometric decrease in virus production. As a result, this assay is a sensitive means of measuring the ability of a compound to inhibit HIV-1 viral replication.
as §5, §6, §7

[4] = CEM cell growth inhibition (XTT, noninfected cells); format: cell-based; conditions: human, CEM Cell Assay, drug alone, read-out: IC50 (Inhibitory Concentration where drug alone inhibits cell growth)
Description: as §1, §2, §3, §4

E. coli B90 = test: Antibacterial activity, microtitration; format: cell-based; conditions: Gram (-)
Description: (§8) The compounds are additionally useful as broad spectrum antibiotics. Minimum inhibitory concentrations were determined utilizing microtitration techniques described by Heifetz, et. al., Antimicrobial Agents and Chemotherapy, 1974, Vol. 6, 124. The data establish that the compounds have activity against a broad spectrum of bacteria, both Gram +and Gram -. Accordingly, the compounds can be utilized to treat and prevent bacterial diseases in animals and humans. They can also be used as industrial disinfectants, for example, to reduce bacterial growth in shower stalls and public areas.

Stah. aureus RBI = test: Antibacterial activity, microtitration; format: cell-based; conditions: Gram (+)
Description: as §8

Strep. pyogenes c-203 = test: Antibacterial activity, microtitration; format: cell-based; conditions: Gram (+)
Description: as §8

E. coli MC4100 = test: Antibacterial activity, microtitration; format: cell-based; conditions: Gram (-)
Description: as §8

HIV-1WEIO = test: Anti-HIV activity, clinical isolate HIV-1WEIO in PBL; format: cell-based
Description: (§9) The compounds of the invention were also evaluated against various other HIV strains and cell lines utilizing the assay methodology described above. The compounds were additionally evaluated against clinical isolates of HIV strains.

HIV-2ROD = test: Anti-HIV activity, HIV-2ROD in CEM cells; format: cell-based; conditions: Human immunodeficiency virus 2, CCRF-CEM
Description: as §1, §2, §3, §4, §9

HIV-16R = test: Anti-HIV activity, HIV-16R in MT-4 cells; format: cell-based, HIV-1
Description: as §9

SIV = test: Antiviral activity, SIV in CEM cells; format: cell-based; conditions: Simian immunodeficiency virus, CCRF-CEM
HIV-1N119 = test: Anti-HIV activity, HIV-1N119 in CEM cells; format: cell-based; conditions: Human immunodeficiency virus 1, CCRF-CEM
Description: as §1, §2, §3, §4, §9

HIV-1A17 [5] = test: Anti-HIV activity, HIV-1A17 in MT-4 cells; format: cell-based
Description: as §9

HIV-1RF = test: Anti-HIV activity, HIV-1RF in CEM cells; format: cell-based; conditions: Human immunodeficiency virus 1, CCRF-CEM
Description: as §1, §2, §3, §4, §9

HIV-1IIIb [6] = test: Anti-HIV activity, HIV-1IIIb in CEM cells; format: cell-based; conditions: Human immunodeficiency virus 1, CCRF-CEM
Description: as §1, §2, §3, §4, §9

HIV-1IIIb [7] = test: Anti-HIV activity, HIV-1IIIb in MT-2 cells; format: cell-based; conditions: Human immunodeficiency virus 1, MT2; MT-2, HIV-1IIIb
Description: as §9

HIV-1A17 [8] = test: Anti-HIV activity, HIV-1A17 in MT-2 cells; format: cell-based; conditions: Human immunodeficiency virus 1, MT2
Description: as §9

[9] = biological target: T1, HIV-1 Nucleocapsid Protein (NCp7) (Human immunodeficiency virus type 1 group M subtype B, UniProt P12493); test: Zinc extrusion assay (TSQ fluorescence) from the zinc fingers of HIV-1 nucleocapsid protein (NCp7); format: biochemical; conditions: 10 μM compound, 2.8 μM NCp7, pH 7.4, 26° C., 90 minutes
T1 construct: The NCp7 protein containing 2 Zn-fingers and 2 Zn ions is incubated with drug
Source text: The compounds of the present invention cause the extrusion of zinc from the nucleocapsid protein (NCp7) of HIV-1. The NC protein is highly conserved among all retroviruses (South T., Blake P., et al., Biochemistry, 1990;29:7786) and is essential for viral infectivity (Aldovini A. and Young R., J. Virology, 1990;64:1920 and Gorelick R., Nigida S., et al., J. Virology, 1990;64:3207). The zinc is normally held in NC proteins by 1 or 2 zinc fingers. In the case of HIV-1, 2 zinc fingers are present (Summers M., South T., et al., Biochemistry, 1990;29:329) and are involved specifically with the PSI site on viral RNA which controls the packaging of viral RNA. Interference of this packaging causes the formation of non-infectious virions (Dannull J., Surovoy A., et al., EMBO, 1994;13:1525). It has previously been shown that compounds that cause zinc extrusion have potent anti-HIV activity in multiple cell lines and against all retroviruses (Rice W., Schaeffer C., et al., Nature, 1993;361:473).
A fluorescence-based assay has been developed to monitor the ejection of zinc from purified HIV-1 NCp7. The fluorophore, N-(6-methoxy-8-quinolyl)-p-toluenesulfonamide (TSQ), has an increased fluorescent signal upon bonding zinc ion in solution. The NCp7 protein containing 2 Zn-fingers and 2 Zn ions is incubated with drug causing the extrusion of Zn ions. The released Zn is then sequestered by the TSQ and the increased fluorescence monitored relative to control. […] Fluorescence (excitation 355 nm emission 400 nm) was monitored versus time. Controls were the NCp7 under assay conditions without drug, and apo NCp7 (no Zn) with drug. The % Zn extrusion was calculated based on the actual fluorescence measured divided by the fluorescence of all theoretical Zn extruded (5.6 μM)×100.
Table 1 below presents data for several invention compounds evaluated in the zinc extrusion assay described above.

[10] = Human immunodeficiency virus 1, MT4, read-out: EC50 (AZT)
[11] = Human immunodeficiency virus 1, MT4

SMILES: NS(=O)(=O)c1ccc(NC(=O)c2ccccc2S)cc1 [Example 6, 2-Thio-N-(4-sulfamoylphenyl)benzamide]
- EC50 (HIV-1 [1]): 5.2 µM
- CC50 at 168 h [2]: 28 µM
- EC50 (HIV-1 [3]): 2.5 µM
- CC50 [4]: > 100 µM
- Minimum inhibitory concentration (E. coli B90): 32
- Minimum inhibitory concentration (Stah. aureus RBI): 128
- Minimum inhibitory concentration (Strep. pyogenes c-203): 64
- Minimum inhibitory concentration (E. coli MC4100): 64

SMILES: Cc1cn([C@H]2C[C@H](N=[N+]=[N-])[C@@H](CO)O2)c(=O)[nH]c1=O [AZT, azidothymidine, reference compound]
- EC50 (HIV-1WEIO; Human immunodeficiency virus 1, read-out: EC50 (AZT)): 0.003 µM
- EC50 (HIV-2ROD; read-out: EC50 (AZT)): 0.00141 µM
- EC50 (HIV-16R; [10]): > 1 µM
- EC50 (SIV; read-out: EC50 (AZT)): 0.245 µM
- EC50 (HIV-1N119; read-out: EC50 (AZT)): 0.0444 µM
- EC50 (HIV-1A17 [5]; [10]): 0.114 µM
- EC50 (HIV-1RF; read-out: EC50 (AZT)): 0.0006 µM
- EC50 (HIV-1IIIb [6]; read-out: EC50 (AZT)): 0.0045 µM

SMILES: O=c1[nH]cnc2c1ncn2[C@H]1CC[C@@H](CO)O1 [ddI, dideoxyinosine, reference compound]
- EC50 (HIV-1IIIb [7]): 6 µM
- EC50 (HIV-1A17 [8]): 4.6 µM

SMILES: CC(=O)NS(=O)(=O)c1ccc(NC(=O)c2ccccc2SSc2ccccc2C(=O)Nc2ccc(S(=O)(=O)NC(C)=O)cc2)cc1 [Example 4, 2,2'-Dithiobis-N-[4-[(acetylamino)sulfonyl]phenyl]benzamide]
- EC50 (HIV-1WEIO; Human immunodeficiency virus 1): 5.2 µM
- % Zinc Extrusion Relative to Control [9]: 87%
- EC50 (HIV-2ROD; CEM, HIV-2ROD, read-out: EC50): 3 µM
- EC50 (HIV-16R; [11]): 1.9 µM
- EC50 (SIV; read-out: EC50): 3.4 µM
- EC50 (HIV-1N119): 4.6 µM
- EC50 (HIV-1A17 [5]; [11]): 8.9 µM
- EC50 (HIV-1RF; CEM, HIV-1RF, read-out: EC50): 1.5 µM
- CC50 at 168 h [2]: 27 µM
- EC50 (HIV-1 [3]): 4.8 µM
- EC50 (HIV-1IIIb [6]; CEM, HIV-1IIIb, read-out: EC50): 5.2 µM
- Minimum inhibitory concentration (E. coli B90): 32
- Minimum inhibitory concentration (Stah. aureus RBI): 256
- Minimum inhibitory concentration (Strep. pyogenes c-203): 64
- Minimum inhibitory concentration (E. coli MC4100): 128
